In patent US10072034B2, “Kinase inhibitors” (Respivert Limited, priority 2016, dated 2018):

How the values were obtained:
[1] = test system: TNFα release in PBMCs; experiment: LPS-induced TNFα release in PBMC cells (assay (b)); type: cell-based; settings: Homo sapiens, LPS-stimulated PBMCs
Method: Peripheral blood mononuclear cells (PBMCs) from healthy subjects are separated from whole blood using a density gradient (Lymphoprep, Axis-Shield Healthcare). The PBMCs are seeded in 96 well plates and treated with compounds at the desired concentration for 2 hours before addition of 1 ng/mL LPS (Escherichia Coli 0111:B4 from Sigma Aldrich) for 24 hours under normal tissue culture conditions (37° C., 5% CO2). The supernatant is harvested for determination of IL-8 and TNFα concentrations by sandwich ELISA (Duo-set, R&D systems) and read on the fluorescence microplate reader (Varioskan® Flash, ThermoFisher Scientific). The concentration at 50% inhibition (IC50) of IL-8 and TNFα production is calculated from the dose response curve.

[2] = target: Syk (Homo sapiens (Human), UniProt P43405); experiment: Syk enzyme inhibition (FRET, Z-LYTE); type: biochemical
Method: (§1) The enzyme inhibitory activities of compounds disclosed herein are determined by FRET using synthetic peptides labelled with both donor and acceptor fluorophores (Z-LYTE, Invitrogen Ltd., Paisley, UK).
The inhibitory activities of compounds of the invention against c-Src and Syk enzymes (Invitrogen), are evaluated in a similar fashion to that described hereinabove. The relevant enzyme (3000 ng/mL or 2000 ng/mL respectively, 2.5 μL) is incubated with the test compound (either 1 μg/mL, 0.1 μg/mL, 0.01 μg/mL, or 0.001 μg/mL, 2.5 μL each) for 2 hr at RT. The FRET peptides (8 μM. 2.5 μL), and appropriate ATP solutions (2.5 μL, 800 μM for c-Src, and 60 μM ATP for Syk) are then added to the enzymes/compound mixtures and the mixture incubated for 1 hr. Development reagent (protease, 5 μL) is added for 1 hr prior to detection in a fluorescence microplate reader (Varioskan® Flash, ThermoFisher Scientific).
(§2) In all cases, the site-specific protease cleaves non-phosphorylated peptide only and eliminates the FRET signal. Phosphorylation levels of each reaction are calculated using the ratio of coumarin emission (donor) over fluorescein emission (acceptor), for which high ratios indicate high phosphorylation and low ratios indicate low phosphorylation levels. […]

[3] = Microcentrifuge dissolution test 1): transfer from intestinal buffer (IB) to colonic buffer (CB); type: physicochemical; settings: for Concentration, CB Timepoint 4 min: pH 7.2, 4 min; for Concentration, CB Timepoint 10 min: pH 7.2, 10 min; for Concentration, CB Timepoint 20 min: pH 7.2, 20 min; for Concentration, CB Timepoint 40 min: pH 7.2, 40 min; for Concentration, CB Timepoint 90 min: pH 7.2, 90 min; for Concentration, CB Timepoint 1,200 min: pH 7.2, 1,200 min; for Concentration, IB Timepoint −5 min / Concentration, IB Timepoint −15 min / Concentration, IB Timepoint −25 min: PBS pH 6.5, 37° C.; for Additional concentration, UCF Timepoint 90 min / Additional concentration, UCF Timepoint 1,200 min: after ultracentrifugation (free drug + drug in micelles); for Additional concentration, UCF Timepoint 90 min: CB pH 7.2, 90 min; for Additional concentration, UCF Timepoint 1,200 min: CB pH 7.2, 1,200 min
Method: In vitro non-sink dissolution performance of the Compound of Example 3 was evaluated alongside Reference Compounds A and B employing microcentrifuge dissolution tests in which samples were either 1) transferred from intestinal buffer (IB) to colonic buffer (CB) or 2) dosed directly into intestinal media containing simulated bile-salt micelles (IB-SIF). Dissolution performance of the compounds at various timepoints was determined by centrifugation and analysis of the supernatant concentrations by off-line reverse-phase HPLC analysis.
Test compounds (0.45 mg±0.05 mg) were weighed into a microcentrifuge tube, then 0.900 mL of IB receptor solution—phosphate buffered saline (PBS) warmed to 37° C. at pH 6.5—was added. A timer was started and the sample tubes were vortexed at the maximum setting for 1 minute. When the timer read 3, 13 and 23 min—corresponding to the 25, 15 and 5 min timepoints, respectively—the sample tubes were centrifuged for 1 min at 15,800 Relative Centrifugal Force (RCF). At each timepoint, a portion of the supernatant (50 μL) was added to diluent {250 μL of 75/25 THF/Water (v/v)} and the compound concentrations were measured by off-line HPLC analysis (Table 6a). After a further 5 min, 0.900 mL of CB receptor solution—pH 10.7 PBS solution—was added, such that the pH was adjusted to 7.2, and the timer was reset to 0 min. When the timer read 2, 8, 18, 38, 88 and 1,198 min—corresponding to the 4, 10, 20, 40, 90 and 1,200 min timepoints, respectively—the sample tubes were centrifuged for 1 min at 15,800 RCF. At each timepoint, a portion of the supernatant (50 μL) was added to diluent {250 μL of 75/25 THF/Water (v/v)} and the compound concentrations were measured by off-line HPLC analysis (Table 6a). The HPLC samples for the 90 and 1,200 min timepoints were additionally centrifuged for 8 min at 80,000 rpm at 37° C. in an ultracentrifuge (UCF), then the supernatant (50 μL) was added to diluent {250 μL of 75/25 THF/Water (v/v)} and the compound concentrations were measured by off-line HPLC analysis (Table 6b) to determine the concentration of free drug+drug in micelles.

[4] = target: p38 MAPKα (Homo sapiens (Human), UniProt Q16539); experiment: p38 MAPKα enzyme inhibition (FRET, Z-LYTE; Method 2); type: biochemical
Method: as §1
The inhibitory activities of test compounds against the p38 MAPKα isoform (MAPK14: Invitrogen) are evaluated indirectly by determining the level of activation/phosphorylation of the down-stream molecule, MAPKAP-K2. The p38 MAPKα protein (80 ng/mL, 2.5 μL) is mixed with the test compound (2.5 μL of either 4 μg/mL, 0.4 μg/mL, 0.04 μg/mL or 0.004 μg/mL) for 2 hr at RT. […] The mixture is incubated for 1 hr at RT. Development reagent (protease, 5 μL) is added for 1 hr prior to detection in a fluorescence microplate reader (Varioskan® Flash, ThermoFisher Scientific).
This method follows the same steps as Method 1 above, but utilises a higher concentration of the p38 MAPKα protein (2.5 μL of 200 ng/mL protein instead of 2.5 μL of 80 ng/mL protein) for mixing with the test compound (tested at either 1 μg/mL, 0.1 μg/mL, 0.01 μg/mL or 0.001 μg/mL).
as §2

[5] = test system: Jurkat cells; experiment: Cell cytotoxicity assay, Jurkat cell viability (assay (r)); type: cell-based, human; settings: 24 hours
Method: 1×10^5 Jurkat cells (immortalised human T lymphocytes) are added to the appropriate number of wells of a 96 well plate in 100 μL of media (RPMI supplemented with 10% foetal bovine serum). 1 μL of DMSO control (final concentration 1.0% v/v) or test compound (final concentration 20, 5 or 1 μg/mL) is added to the wells and incubated at 37° C., 5% CO2. After 24 hours, the plate is centrifuged at 1200 rpm for 3 minutes and the supernatant discarded. Cells are then resuspended in 150 μL (final concentration 7.5 μg/mL) of propidium iodide (PI) in PBS and incubated at 37° C., 5% CO2 for 15 minutes. After 15 minutes, cells are analysed by flow cytometry (BD accuri) using the FL3 window. The % viability is calculated as the % of cells that are P negative in the test wells normalised to the DMSO control.

Sequence of p38 MAPKα (Q16539 whole entry): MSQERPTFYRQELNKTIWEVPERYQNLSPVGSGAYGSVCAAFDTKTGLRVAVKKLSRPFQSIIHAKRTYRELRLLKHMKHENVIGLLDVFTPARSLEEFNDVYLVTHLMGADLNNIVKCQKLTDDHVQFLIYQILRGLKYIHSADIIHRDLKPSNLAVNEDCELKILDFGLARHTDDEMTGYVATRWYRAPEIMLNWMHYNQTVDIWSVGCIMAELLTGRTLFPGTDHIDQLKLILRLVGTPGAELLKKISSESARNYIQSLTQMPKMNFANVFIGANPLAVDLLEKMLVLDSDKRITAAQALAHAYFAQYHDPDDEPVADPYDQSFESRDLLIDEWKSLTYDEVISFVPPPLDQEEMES

Compound	IC50 [1]	IC50 [2]	Concentration, CB Timepoint 4 min [3]	Concentration, CB Timepoint 10 min [3]	Concentration, CB Timepoint 20 min [3]	Concentration, CB Timepoint 40 min [3]	Concentration, CB Timepoint 90 min [3]	Concentration, CB Timepoint 1,200 min [3]	Concentration, IB Timepoint −5 min [3]	Concentration, IB Timepoint −15 min [3]	Concentration, IB Timepoint −25 min [3]	Additional concentration, UCF Timepoint 90 min [3]	Additional concentration, UCF Timepoint 1,200 min [3]	IC50 [4]	% Viability at 1 μg/mL [5]	% Viability at 5 μg/mL [5]	% Viability at 20 μg/mL [5]
COc1cc(Nc2cc(Oc3ccc(NC(=O)Nc4cc(C(C)(C)C)cc(NS(C)(=O)=O)c4OC)c4ccccc34)ccn2)cc(OCCOCCOCC(=O)O)c1 [Example 3]	10.8 nM	12 nM	9300 ng/mL	9100 ng/mL	14300 ng/mL	48300 ng/mL	60700 ng/mL	85400 ng/mL	8500 ng/mL	7500 ng/mL	5300 ng/mL	34.1 µg/mL	74.9 µg/mL	23 nM	99%	99%	96%
COc1cc(Nc2nccc(Oc3ccc(NC(=O)Nc4cc(C(C)(C)C)cc(NS(C)(=O)=O)c4OC)c4ccccc34)n2)cc(OCCOCCOCCC(=O)O)c1 [Reference Compound A, 3-(2-(2-(3-((4-((4-(3-(5-(tert-butyl)-2-methoxy-3-(methylsulfonamido)phenyl)ureido)naphthalen-1-yl)oxy)-pyrimidin-2-yl)amino)-5-methoxyphenoxy)ethoxy)ethoxy)propanoic acid]	–	–	11400 ng/mL	11500 ng/mL	10700 ng/mL	10700 ng/mL	8400 ng/mL	7900 ng/mL	5300 ng/mL	4600 ng/mL	2900 ng/mL	5.1 µg/mL	3.9 µg/mL	–	96%	93%	48%
C#Cc1cc(Nc2nccc(Oc3ccc(NC(=O)Nc4cc(C(C)(C)C)nn4-c4ccc(C)cc4)c4ccccc34)n2)cc(C(=O)NCCOCCOCCOC)c1 [Reference Compound B, 3-((4-((4-(3-(3-(tert-butyl)-1-(p-tolyl)-1H-pyrazol-5-yl)ureido)naphthalen-1-yl)oxy)pyrimidin-2-yl)amino)-5-ethynyl-N-(2-(2-(2-methoxyethoxy)ethoxy)ethyl)benzamide]	–	–	5000 ng/mL	1900 ng/mL	900 ng/mL	600 ng/mL	0 ng/mL	4900 ng/mL	2200 ng/mL	1000 ng/mL	1900 ng/mL	0.0 µg/mL	1.6 µg/mL	–	–	–	–
